Reference: patent publication US11968999B2, “Use and composition of buffer formulation with multiple pH values and protein digestion enhancer” (ECO-GEO BIO-TECHNOLOGY COMPANY LIMITED, priority 2018, dated 2024)

Experiments:
[1] = environment where the pH is greater than 4; cited from earlier work
trypsin = trypsin (Homo sapiens, UniProt P07477); test: Proteolysis of casein by trypsin with ascorbic acid in citric acid buffer (OPA fluorescence, TAAE); type: biochemical
Procedure: (§1) The four test tubes were respectively incubated at 37° C. for 10 minutes, 1 hour, 2 hours and 3 hours, an equal amount of 10% trichloroacetic acid (TCA) solution was added into each test tube and mixed with the control solution uniformly, and the test tubes were held at room temperature for 10 minutes and then centrifuged at 3000 rpm for 10 minutes. 20 μL of the supernatants taken from the above-mentioned test tubes at four time points were put into four new test tubes. 2.4 mL o-phthalaldehyde (OPA) reagent was added into each new test tube and held for 2 minutes, and the fluorescence intensity was measured at EX. 340 nm and EM. 455 nm by a fluorescence spectrometer. […] The four test tubes were respectively incubated at 37° C. for 10 minutes, 1 hour, 2 hours and 3 hours, an equal amount of 10% TCA solution was added into each test tube and mixed with the experimental solution uniformly, and the test tubes were held at room temperature for 10 minutes and then centrifuged at 3000 rpm for 10 minutes. 20 μL of the supernatants taken from the above-mentioned test tubes at four time points were put into four new test tubes. 2.4 mL OPA reagent was added into each new test tube and held for 2 minutes, and the fluorescence intensity was measured at EX. 340 nm and EM. 455 nm by the fluorescence spectrometer. […] The four test tubes were respectively incubated at 37° C. for 10 minutes, 1 hour, 2 hours and 3 hours, an equal amount of 10% TCA solution was added into each test tube and mixed with the experimental solution uniformly, and the test tubes were held at room temperature for 10 minutes and then centrifuged at 3000 rpm for 10 minutes. 20 μL of the supernatants taken from the above-mentioned test tubes at four time points were put into four new test tubes. 2.4 mL OPA reagent was added into each new test tube and held for 2 minutes, and the fluorescence intensity was measured at EX. 340 nm and EM. 455 nm by the fluorescence spectrometer. […] The four test tubes were respectively incubated at 37° C. for 10 minutes, 1 hour, 2 hours and 3 hours, an equal amount of 10% TCA solution was added into each test tube and mixed with the experimental solution uniformly, and the test tubes were held at room temperature for 10 minutes and then centrifuged at 3000 rpm for 10 minutes. 20 μL of the supernatants taken from the above-mentioned test tubes at four time points were put into four new test tubes. 2.4 mL OPA reagent was added into each new test tube and held for 2 minutes, and the fluorescence intensity was measured at EX. 340 nm and EM. 455 nm by the fluorescence spectrometer. The obtained fluorescence intensity was calculated as the amount of tyrosine according to the tyrosine calibration line established in advance at the same pH value, and represented as TAAE (μg/mL). 2. […] The four test tubes were respectively incubated at 37° C. for 10 minutes, 1 hour, 2 hours and 3 hours, an equal amount of 10% TCA solution was added into each test tube and mixed with the control solution uniformly, and the test tubes were held at room temperature for 10 minutes and then centrifuged at 3000 rpm for 10 minutes. 20 μL of the supernatants taken from the above-mentioned test tubes at four time points were put into four new test tubes. 2.4 mL OPA reagent was added into each new test tube and held for 2 minutes, and the fluorescence intensity was measured at EX. 340 nm and EM. 455 nm by the fluorescence spectrometer. […] The four test tubes were respectively incubated at 37° C. for 10 minutes, 1 hour, 2 hours and 3 hours, an equal amount of 10% TCA solution was added into each test tube and mixed with the experimental solution uniformly, and the test tubes were held at room temperature for 10 minutes and then centrifuged at 3000 rpm for 10 minutes. 20 μL of the supernatants taken from the above-mentioned test tubes at four time points were put into four new test tubes. […]

pepsin = pepsin (Homo sapiens, UniProt P0DJD8); test: Proteolysis of casein by pepsin with ascorbic acid in citric acid buffer (OPA fluorescence, TAAE); type: biochemical
Procedure: 1. […]
as §1

[2] = pH 5.0, 60 ppm ascorbic acid, 0.1 hr
[3] = pH 5.0, 60 ppm ascorbic acid, 1 hr
[4] = pH 5.0, 60 ppm ascorbic acid, 2 hr
[5] = pH 5.0, 60 ppm ascorbic acid, 3 hr
[6] = pH 5.0, 120 ppm ascorbic acid, 0.1 hr
[7] = pH 5.0, 120 ppm ascorbic acid, 1 hr
[8] = pH 5.0, 120 ppm ascorbic acid, 2 hr
[9] = pH 5.0, 120 ppm ascorbic acid, 3 hr
[10] = pH 5.0, 240 ppm ascorbic acid, 0.1 hr
[11] = pH 5.0, 240 ppm ascorbic acid, 1 hr
[12] = pH 5.0, 240 ppm ascorbic acid, 2 hr
[13] = pH 5.0, 240 ppm ascorbic acid, 3 hr
[14] = pH 6.0, 60 ppm ascorbic acid, 0.1 hr
[15] = pH 6.0, 60 ppm ascorbic acid, 1 hr
[16] = pH 6.0, 60 ppm ascorbic acid, 2 hr
[17] = pH 6.0, 60 ppm ascorbic acid, 3 hr
[18] = pH 6.0, 120 ppm ascorbic acid, 0.1 hr
[19] = pH 6.0, 120 ppm ascorbic acid, 1 hr
[20] = pH 6.0, 120 ppm ascorbic acid, 2 hr
[21] = pH 6.0, 120 ppm ascorbic acid, 3 hr
[22] = pH 6.0, 240 ppm ascorbic acid, 0.1 hr
[23] = pH 6.0, 240 ppm ascorbic acid, 1 hr
[24] = pH 6.0, 240 ppm ascorbic acid, 2 hr
[25] = pH 6.0, 240 ppm ascorbic acid, 3 hr
[26] = pH 6.0, groups containing ascorbic acid

Chain of pepsin (P0DJD8 63-388): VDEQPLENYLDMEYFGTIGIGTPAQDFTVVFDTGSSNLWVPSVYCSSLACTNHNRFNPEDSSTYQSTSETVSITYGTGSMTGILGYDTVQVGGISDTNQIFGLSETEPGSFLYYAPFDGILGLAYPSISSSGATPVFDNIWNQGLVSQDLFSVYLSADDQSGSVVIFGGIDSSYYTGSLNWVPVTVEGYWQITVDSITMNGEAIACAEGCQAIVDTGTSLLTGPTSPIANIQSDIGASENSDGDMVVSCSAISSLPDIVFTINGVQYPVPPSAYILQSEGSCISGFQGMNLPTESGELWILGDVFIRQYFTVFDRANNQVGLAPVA

Compound: O=C1O[C@H]([C@@H](O)CO)C(O)=C1O [ascorbic acid]
- stability (degradation) of ascorbic acid (in words) [1]: easily degraded
- TAAE (trypsin; [2]): 11.5 µg/mL
- TAAE (trypsin; [3]): 30.4 µg/mL
- TAAE (trypsin; [4]): 37.8 µg/mL
- TAAE (trypsin; [5]): 45.2 µg/mL
- TAAE (trypsin; [6]): 15.3 µg/mL
- TAAE (trypsin; [7]): 38.0 µg/mL
- TAAE (trypsin; [8]): 39.0 µg/mL
- TAAE (trypsin; [9]): 49.1 µg/mL
- proteolytic efficiency of trypsin (in words) (trypsin; pH 5.0, 240 ppm ascorbic acid): improves the proteolytic efficiency of the trypsin significantly
- TAAE (trypsin; [10]): 38.9 µg/mL
- TAAE (trypsin; [11]): 37.5 µg/mL
- TAAE (trypsin; [12]): 87.9 µg/mL
- TAAE (trypsin; [13]): 89.3 µg/mL
- effect on proteolysis efficiency of trypsin (in words) (trypsin; pH 5, pH 6 and pH 7.5, control group at pH 7.5 as comparison indicator): significant effect on the proteolysis efficiency of the trypsin
- TAAE (trypsin; [14]): 57.7 µg/mL
- TAAE (trypsin; [15]): 86.6 µg/mL
- TAAE (trypsin; [16]): 90.4 µg/mL
- TAAE (trypsin; [17]): 93.7 µg/mL
- TAAE (trypsin; [18]): 54.2 µg/mL
- TAAE (trypsin; [19]): 85.6 µg/mL
- TAAE (trypsin; [20]): 91.3 µg/mL
- TAAE (trypsin; [21]): 94.8 µg/mL
- TAAE (trypsin; [22]): 57.9 µg/mL
- TAAE (trypsin; [23]): 102.4 µg/mL
- TAAE (trypsin; [24]): 103.1 µg/mL
- TAAE (trypsin; [25]): 91.5 µg/mL
- proteolytic efficiency of trypsin versus control group (in words) (trypsin; [26]): better proteolytic efficiencies than the control group
- TAAE (trypsin; pH 7.5, 60 ppm ascorbic acid, 0.1 hr): 82.6 µg/mL
- TAAE (trypsin; pH 7.5, 60 ppm ascorbic acid, 1 hr): 107.0 µg/mL
- TAAE (trypsin; pH 7.5, 60 ppm ascorbic acid, 2 hr): 103.8 µg/mL
- TAAE (trypsin; pH 7.5, 60 ppm ascorbic acid, 3 hr): 105.1 µg/mL
- TAAE (trypsin; pH 7.5, 120 ppm ascorbic acid, 0.1 hr): 78.4 µg/mL
- TAAE (trypsin; pH 7.5, 120 ppm ascorbic acid, 1 hr): 116.3 µg/mL
- TAAE (trypsin; pH 7.5, 120 ppm ascorbic acid, 2 hr): 107.3 µg/mL
- TAAE (trypsin; pH 7.5, 120 ppm ascorbic acid, 3 hr): 99.0 µg/mL
- TAAE (trypsin; pH 7.5, 240 ppm ascorbic acid, 0.1 hr): 60.4 µg/mL
- TAAE (trypsin; pH 7.5, 240 ppm ascorbic acid, 1 hr): 91.1 µg/mL
- TAAE (trypsin; pH 7.5, 240 ppm ascorbic acid, 2 hr): 100.5 µg/mL
- TAAE (trypsin; pH 7.5, 240 ppm ascorbic acid, 3 hr): 86.8 µg/mL
- hydrolysis efficiency of trypsin versus control group (in words) (trypsin; pH 7.5, groups containing ascorbic acid): better hydrolysis efficiencies than the control group
- total amino acid equivalent (TAAE) (pepsin; pH 2.0, 60 ppm ascorbic acid, 0.1 hr): 3.8 µg/mL
- total amino acid equivalent (TAAE) (pepsin; pH 2.0, 60 ppm ascorbic acid, 1 hr): 44.9 µg/mL
- total amino acid equivalent (TAAE) (pepsin; pH 2.0, 60 ppm ascorbic acid, 2 hr): 70.9 µg/mL
- total amino acid equivalent (TAAE) (pepsin; pH 2.0, 60 ppm ascorbic acid, 3 hr): 44.9 µg/mL
- total amino acid equivalent (TAAE) (pepsin; pH 2.0, 120 ppm ascorbic acid, 0.1 hr): 6.7 µg/mL
- total amino acid equivalent (TAAE) (pepsin; pH 2.0, 120 ppm ascorbic acid, 1 hr): 45.1 µg/mL
- total amino acid equivalent (TAAE) (pepsin; pH 2.0, 120 ppm ascorbic acid, 2 hr): 73.0 µg/mL
- total amino acid equivalent (TAAE) (pepsin; pH 2.0, 120 ppm ascorbic acid, 3 hr): 58.7 µg/mL
- total amino acid equivalent (TAAE) (pepsin; pH 2.0, 240 ppm ascorbic acid, 0.1 hr): 5.6 µg/mL
- total amino acid equivalent (TAAE) (pepsin; pH 2.0, 240 ppm ascorbic acid, 1 hr): 54.6 µg/mL
- total amino acid equivalent (TAAE) (pepsin; pH 2.0, 240 ppm ascorbic acid, 2 hr): 76.4 µg/mL
- total amino acid equivalent (TAAE) (pepsin; pH 2.0, 240 ppm ascorbic acid, 3 hr): 38.2 µg/mL
- hydrolysis efficiency of pepsin versus control group (in words) (pepsin; pH 2.0, groups containing ascorbic acid): better hydrolysis efficiencies than the control group
- TAAE (pepsin; [2]): 6.4 µg/mL
- TAAE (pepsin; [3]): 32.7 µg/mL
- TAAE (pepsin; [4]): 58.6 µg/mL
- TAAE (pepsin; [5]): 42.0 µg/mL
- TAAE (pepsin; [6]): 19.5 µg/mL
- TAAE (pepsin; [7]): 22.1 µg/mL
- TAAE (pepsin; [8]): 55.4 µg/mL
- TAAE (pepsin; [9]): 38.1 µg/mL
- proteolytic efficiency of pepsin (in words) (pepsin; pH 5.0, 240 ppm ascorbic acid): improves the proteolytic efficiency of the pepsin significantly
- TAAE (pepsin; [10]): 49.5 µg/mL
- TAAE (pepsin; [11]): 81.1 µg/mL
- TAAE (pepsin; [12]): 92.2 µg/mL
- TAAE (pepsin; [13]): 72.6 µg/mL
- effect on proteolysis efficiency of pepsin (in words) (pepsin; pH 5, pH 6 and pH 2, control group at pH 2 as comparison indicator): significant effect on the proteolysis efficiency of the pepsin
- TAAE (pepsin; [14]): 4.2 µg/mL
- TAAE (pepsin; [15]): 47.9 µg/mL
- TAAE (pepsin; [16]): 40.4 µg/mL
- TAAE (pepsin; [17]): 27.5 µg/mL
- TAAE (pepsin; [18]): -6.7 µg/mL
- TAAE (pepsin; [19]): 43.9 µg/mL
- TAAE (pepsin; [20]): 24.4 µg/mL
- TAAE (pepsin; [21]): 24.2 µg/mL
- TAAE (pepsin; [22]): 1.8 µg/mL
- TAAE (pepsin; [23]): 31.5 µg/mL
- TAAE (pepsin; [24]): 57.4 µg/mL
- TAAE (pepsin; [25]): 34.5 µg/mL
- proteolytic efficiency of pepsin versus control group (in words) (pepsin; [26]): better proteolytic efficiencies than the control group
